According to patent US20210275415A1, “AN ANTIMICROBIAL COMPOSITION” (Conopco, Inc., d/b/a UNILEVER, priority 2017, published 2021):
Read-outs that look alike come from different tables or passages of the source. Blank lines part the entries; values can stand above or below the compound they belong to.

Tests used:
Staphylococcus aureus = experiment: ΣFIC assay against Staphylococcus aureus (MIC by alamar blue, checkerboard); format: cell-based, S. aureus (ATCC 12600); conditions: for interaction of the combination (synergy/additivity) in words: conclusion from Table 2; for MIC: Staphylococcus aureus, 24 h, read-out: Minimum Inhibition Concentration (MIC)
Experimental: Effect of sphingosine with triclosan as well as triclocarban was also tested. A brief description of the method is given below.
Methods: ΣFIC assay against Staphylococcus aureus
They are then incubated at 37° C. overnight (16 hours) with shaking. The overnight culture is diluted using TSB to 5*10^4 cell/ml.
Zinc pyrithione was serially diluted (2-fold) to prepare in a range of 0.5 to 500 ppm in the growth medium. The AML compound was serially diluted (2-fold) to prepare in a range of 16 to 1,000 ppm for sapienic acid, and palmitoleic acid; and 4 to 250 ppm for other AMLs in growth medium. Triclosan was serially diluted (2-fold) to prepare in a range of 0.2 to 200 ppm and triclocarban in a range of 2 to 2000 ppm in growth medium.
(§1) Binary combinations of ZPTO or triclosan/triclocarban and the AML compound were prepared in 96-well plate by mixing 20 μl of zinc pyrithione solution with 20 μl of AML compound. The solution in each well were further mixed with 160 μl of TSB and 20 μl of S. aureus. The final cell density in the testing plate is around 4*10^4 cell/ml, and the final concentration of actives in each well of the 96-well plate were shown below.
Then 20 μl of alamar blue (0.01%) was added into each well, and the plate was incubated at 37° C. for one day to observe the color change. Red color indicates microbial growth and the non-changing blue color indicates no growth.
(§2) The MIC is defined as the absolute lowest concentration of active that provides complete microbial growth inhibition as indicated by the blue color of alamar blue under the tested condition.
The differing behaviors of inhibitory antimicrobials in isolation and mixtures have been widely explored using the concept of the Fractional Concentration (FC) and Fractional Inhibitory Concentration (FIC). The parameter can be defined as follows: […]
(§3) These relationships can be expressed mathematically by summing the fractional MIC values for all the components present in the mixture to give the “fractional inhibition index”. There is no consistent approach in the academic or patent literature in defining precise limiting ΣFIC values that differentiate synergy from additivity or antagonism. In this study, we have adopted a liberal approach defining any binary mixture with ΣFIC<0.9 as showing evidence of synergistic behavior.

Malassezia furfur = experiment: ΣFIC assay against Malassezia furfur (MIC by alamar blue, checkerboard); format: cell-based, M. furfur (CBS 1878); conditions: M. furfur, Pityrosporum Broth, 32° C., lowest concentration giving complete growth inhibition (alamar blue stays blue), active alone; for MIC: Malassezia furfur, read-out: Minimum Inhibition Concentration (MIC)
Experimental: Synergistic interaction between ZPTO and the AML compounds was determined using the ΣFIC assay against Malassezia furfur. A brief description of the method is given below.
Method: ΣFIC assay against Malassezia furfur
They are then incubated at 32° C. for 48 hours with shaking. Then, 1 ml of the first broth culture is transferred into 9 ml of fresh PB and incubated at 32° C. for 48 hours with shaking. The final culture should contain 2 to 6×10^6 cells/ml. This is achieved by diluting using PB to 5*10^5 cell/ml.
as §1, with “ZPTO” for “ZPTO or triclosan/triclocarban”, “PB” for “TSB”, “M. furfur.” for “S. aureus.”, “5*10^4” for “4*10^4”
The plate was incubated at 32° C. for one day. Then 20 μl of alamar blue (0.01%) was added into each well with a further incubation for one day to observe the color change. Red color indicates microbial growth and the non-changing blue color indicates no growth.
as §2
The differing behaviour of inhibitory antimicrobials in isolation and mixtures have been widely explored using the concept of the Fractional Concentration (FC) and Fractional Inhibitory Concentration (FIC). The parameter can be defined as follows: […]
as §3

[1] = S. aureus, TSB, 37° C. one day, lowest concentration giving complete growth inhibition (alamar blue stays blue), active alone

MIC (Staphylococcus aureus; [1]): 3.1 µg/mL
MIC (Malassezia furfur): 1000 µg/mL
SMILES: CCCCCCCCCCCCC/C=C/[C@@H](O)[C@@H](N)CO [sphingosine]

MIC (Malassezia furfur): 125 µg/mL
SMILES: CCCCCCCCCCCCCC[C@@H](O)[C@@H](O)[C@@H](N)CO [phytosphingosine]

Minimum Inhibition Concentration (MIC) (Staphylococcus aureus; [1]): 6.3 ppm
Minimum Inhibition Concentration (MIC) (Malassezia furfur): 1000 ppm
SMILES: CCCCCCCCCCCCCCC[C@@H](O)[C@@H](N)CO [dihydrosphingosine]

Minimum Inhibition Concentration (MIC) (Staphylococcus aureus; [1]): 25 ppm
SMILES: CCCCCCCCC/C=C\CCCCC(=O)O [sapienic acid]

The remaining lines, values behind:

SMILES: Oc1cc(Cl)ccc1Oc1ccc(Cl)cc1Cl [triclosan]
interaction of the combination (synergy/additivity) in words (Staphylococcus aureus; S. aureus): additive but not synergistic effect
MIC (Staphylococcus aureus): 0.16 µg/mL

SMILES: O=C(Nc1ccc(Cl)cc1)Nc1ccc(Cl)c(Cl)c1 [triclocarban]
interaction of the combination (synergy/additivity) in words (Staphylococcus aureus; S. aureus): additive but not synergistic effect
MIC (Staphylococcus aureus; [1]): 3.13 µg/mL

SMILES: CCCCCC/C=C\CCCCCCCC(=O)O [palmitoleic acid]
MIC (Malassezia furfur): 5000 µg/mL
